Test results from patent US20170151226A1, “Treatment of Breast Cancer with Liposomal Irinotecan” (priority 2014, published 2017).

What was measured:
[1] = 5-day regimen; cited from earlier work
TNBC LM2-4-luc cells = test: TNBC LM2-4 mouse model of spontaneous metastasis; assay type: in vivo, SCID mice; conditions: nal-IRI 10 mg/kg salt, nonliposomal irinotecan 50 mg/kg salt, IV every 7 days
Source text: 42 female SCID mice were inoculated with TNBC LM2-4-luc cells in their lower right inguinal mammary fat pad. […] Post primary tumor resection, bioluminescence imaging (BLI), (BLI, Xenogen, Perkin Elmer) was used to monitor metastasis formulation. […] Animals were monitored 2-3 times per week using BLI and at the study endpoint using a 1T MRI (M3, Aspect Imaging).

| SMILES | Maximum tolerated dose [1] | Metastatic burden, median bioluminescence flux (TNBC LM2-4-luc cells; day 12) | Median survival (TNBC LM2-4-luc cells) [days] |
| --- | --- | --- | --- |
| C[C@@H](O)[C@@H]1NC(=O)[C@H](CCCCN)NC(=O)[C@@H](Cc2c[nH]c3ccccc23)NC(=O)[C@H](Cc2ccccc2)NC(=O)[C@@H](NC(=O)[C@H](N)Cc2ccccc2)CSSC[C@@H](C(=O)N[C@H](CO)[C@@H](C)O)NC1=O [octreotide] | 2000 micrograms three times daily | – | – |
| CCc1c2c(nc3ccc(OC(=O)N4CCC(N5CCCCC5)CC4)cc13)-c1cc3c(c(=O)n1C2)COC(=O)[C@]3(O)CC [irinotecan] | – | 2.1×10^9 | 14 |
